The results in this text go back to patent publication US20080194641A1, “Pesticidal Mixtures” (BASF Aktiengesellschaft, priority 2005, published 2008).

As a reminder, the mortality is the share of the test organisms that died.

Experiment [1] relates to tobacco budworm. Nature of the experiment: Leaf-dip bioassay on cotton leaves, larval mortality. The experiment is classed as in vivo. To be noted: Heliothis virescens, 120 h, read-out: % Mortality of Tobacco Budworm. As to the method:
(§1) Potato plants for Colorado potato beetle and two-leaf cotton plants for tobacco budworm were utilized for bioassays. Excised plant leaves were dipped into 1:1 acetone/water dilutions of the active compounds. After the leaves had dried, they were individually placed onto water-moistened filter paper on the bottoms of Petri dishes. Each dish was infested with 5-7 larvae and covered with a lid. Each treatment dilution was replicated 4 times. Test dishes were held at approximately 27° C. and 60% humidity. Numbers of live and morbid larvae were assessed in each dish at 5 days after treatment application, and percent mortality was calculated.
(§2) To determine if an insecticidal mixture was synergistic, Limpel's formula was used:
(§3) E=Expected % mortality of the mixture X=% mortality of compound X, as measured independently Y=% mortality of compound Y, as measured independently
(§4) Synergism was evident if the % observed mortality for the mixture was greater than the % expected mortality.

Experiment [2] relates to Colorado potato beetle. The experiment is described as follows: Leaf-dip bioassay on potato leaves, larval mortality. The experiment is classed as in vivo. To be noted: Leptinotarsa decemlineata, 120 h. The protocol:
as §1, §2, §3, §4

Where [3] appears, read: read-out: % Mortality of Colorado Potato Beetle.

As to `CC1(C)C(C=C(Cl)Cl)C1C(=O)OC(C#N)c1cccc(Oc2ccccc2)c1` (stereo not drawn) [alpha-cypermethrin, reference compound], the mortality at 0.03 ppm in experiment [1] and in experiment [2] (setting [3]) was 0% each time. Also, the mortality at 0.06 ppm in experiment [1] was 8.9%; in experiment [2] (setting [3]) it was 4.2%.
Turning to `CCN/C(=N\Nc1c(Cl)cc(C(F)(F)F)cc1Cl)C(C)(C)C` [I-1, N-ethyl-2,2-dimethylpropionamide-2-(2,6-dichloro-α,α,α-trifluoro-p-tolyl)-hydrazone], the mortality at 100 ppm in experiment [1] was 0%; in experiment [2] (dose rate 100 ppm, 5 days after treatment) it was 0%. Besides, the mortality at 300 ppm came to 16% in experiment [1] and 20.8% in experiment [2] (dose rate 300 ppm, 5 days after treatment).
With `CCN/C(=N\Nc1c(Cl)cc(C(F)(F)F)cc1Cl)C1(C)CC1(Cl)Cl` (stereo not drawn) [I-2, N-Ethyl-2,2-dichloro-1-methylcyclopropane-carboxamide-2-(2,6-dichloro-α,α,α-tri-fluoro-p-tolyl)hydrazone], in experiment [1], the mortality at 60 ppm was 5.4% and the mortality at 100 ppm worked out at 12.5%. In addition, the mortality at 30 ppm in experiment [2] (dose rate 30 ppm, 5 days after treatment) is 6.3%. The mortality at 60 ppm in experiment [2] (dose rate 60 ppm, 5 days after treatment) was found to be 39.6%.
On to `O=[N+]([O-])NC1=NCCN1Cc1ccc(Cl)nc1` [imidacloprid, reference compound], for which the mortality at 0.06 ppm in experiment [2] (setting [3]) was 0%.
